Laboratory results from US10188634B2, “3-(3H-imidazo[4,5-C]pyridin-2-yl)-1 H-pyrazolo[4,3-B]pyridines and therapeutic uses thereof” (Samumed, LLC, priority 2015, dated 2019).

Tests used:
[1] = tested on: Wnt activity (Sp5-Luc reporter, human Sp5 promoter with eight TCF/LEF binding sites) in SW480 colon carcinoma cells; assay: Screening assay for Wnt activity: Sp5-Luc reporter gene assay in SW480 cells; assay type: cell-based; conditions: for inhibition at 10 µM: read-out: percent inhibition at 10 μM (given for EC50 of >10 μM); for EC50: 10-point dose-response starting from 10 μM, overnight incubation
Outline: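 Luminescence (BrightGlo) read after overnight 37 °C exposure of Sp5-Luc SW480 reporter cells, 4,000/well in 1% FBS, to compound dosed 1:3 over 10 points from 10 μM with 0.1% DMSO. Values normalized to DMSO-only cells, fitted with variable-slope four-parameter model; where EC50 exceeds 10 μM, % inhibition at 10 μM reported.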

[2] = tested on: primary human mesenchymal stem cells (hMSCs); assay: Induction of chondrogenesis in primary human mesenchymal stem cells (hMSCs), nodule imaging with Rhodamine B / Nile Red; assay type: cell-based; conditions: for Emax: hMSCs chondrogenesis, TGF-β3 (10 ng/mL) as positive control, read-out: Max. Activity as % TGF-β3 activity; for EC50: hMSCs, concentration required to induce 50% levels of chondrogenesis vs TGF-β3 positive control, read-out: Conc (nM) of 50% TGF-β3 activity
Protocol: Representative compounds were screened using primary human mesenchymal stem cells (hMSCs) to determine their ability to induce chondrogenesis (process by which cartilage is developed).
Human Mesenchymal Stem Cell Culture: Primary human mesenchymal stem cells (hMSCs) were purchased from Lonza (Walkersville, Md.) and expanded in Mesenchymal Stem Cell Growth Media (Lonza). Cells between passage 3 and 6 were used for the experiments.
Compound Screening: Each compound was dissolved in DMSO as a 10 mM stock and used to prepare compound source plates. For the 96 well assay, serial dilution (1:3, 6-point dose-response curves from 2700 nM to 10 nM) and compound transfer was performed using the ECHO 550 (Labcyte, Sunnyvale, Calif.) into 96-well clear bottom assay plates (Greiner Bio-One) with appropriate DMSO backfill for a final DMSO concentration of 0.03%. hMSCs were plated at 20,000 cells/well in 250 μL/well Incomplete Chondrogenic Induction Medium (Lonza; DMEM, dexamethasone, ascorbate, insulin-transferrin-selenium [ITS supplement], gentamycin-amphotericin [GA-1000], sodium pyruvate, proline and L-glutamine). TGF-β3 (10 ng/mL) was used as a positive control for differentiation while negative control wells were treated with 75 nL DMSO for normalization and calculating EC50 values. For the 384 well assay, serial dilution (1:3, 8-point dose-response curves from 5000 nM to 2.2 nM) and compound transfer was performed using the ECHO 550 (Labcyte, Sunnyvale, Calif.) into 384-well clear bottom assay plates (Greiner Bio-One) with appropriate DMSO backfill for a final DMSO concentration of 0.03%. hMSCs were plated at 8,000 cells/well in 80 μL/well Incomplete Chondrogenic Induction Medium (Lonza; DMEM, dexamethasone, ascorbate, insulin-transferrin-selenium [ITS supplement], gentamycin-amphotericin [GA-1000], sodium pyruvate, proline and L-glutamine). TGF-β3 (10 ng/mL) was used as a positive control for differentiation while negative control wells were treated with 25 nL DMSO for normalization and calculating EC50 values. Cells were incubated at 37° C. and 5% CO2 for 6 days. To image chondrogenic nodules, the cells were fixed using 4% formaldehyde (Electron Microscopy Sciences), and stained with 2 μg/mL Rhodamine B (Sigma-Aldrich) and 20 μM Nile Red (Sigma-Aldrich) [Johnson K., et.al, A Stem Cell-Based Approach to Cartilage Repair, Science, (2012), 336(6082). 717-721]. The nodules imaged (25 images per well for 96 well plates and 9 images per well for 384 well plates at 10× magnification) by excitation at 531 nm and emission at 625 nm and quantified using the CellInsight CX5 (Thermo Scientific). Area of nodules in each well was normalized to the average of 3 DMSO treated wells on the same plate using Excel (Microsoft Inc.). The normalized averages (fold change over DMSO) of 2 or 3 replicate wells for each compound concentration were calculated. Due to solubility limitations of some of the compounds, curve fitting was incomplete leading to inaccurate EC50 determinations.
Using TGF-β3 as a positive control, the concentration of representative compounds required to induce 50% levels of chondrogenesis is reported. In addition, the maximum activity of each compound and the respective dose that each compound reached maximum chondrogenesis activity is reported.

Row | SMILES | inhibition at 10 µM [1] | EC50 [1] | Emax [2] | EC50 [2]
1 | Cc1cn(-c2cncc3[nH]c(-c4n[nH]c5ccc(-c6cncc(NC(=O)C(C)(C)C)c6)nc45)nc23)cn1 [Compound 204, N-(5-(3-(7-(4-methyl-1H-imidazol-1-yl)-3H-imidazo[4,5-c]pyridin-2-yl)-1H-pyrazolo[4,3-b]pyridin-5-yl)pyridin-3-yl)pivalamide] | 0% | > 10000 nM | 150% | 100 nM
2 | Cc1cn(-c2cncc3[nH]c(-c4n[nH]c5ccc(-c6cncc(CN7CCCC7)c6)nc45)nc23)cn1 [Compound 210, 3-(7-(4-Methyl-1H-imidazol-1-yl)-3H-imidazo[4,5-c]pyridin-2-yl)-5-(5-(pyrrolidin-1-ylmethyl)pyridin-3-yl)-1H-pyrazolo[4,3-b]pyridine] | 3.5% | > 10000 nM | 65% | 2700 nM
3 | Cc1cn(-c2cncc3[nH]c(-c4n[nH]c5ccc(-c6cncc(NC(=O)C7CCC7)c6)nc45)nc23)cn1 [Compound 217, N-(5-(3-(7-(4-Methyl-1H-imidazol-1-yl)-3H-imidazo[4,5-c]pyridin-2-yl)-1H-pyrazolo[4,3-b]pyridin-5-yl)pyridin-3-yl)cyclobutanecarboxamide] | 6.7% | > 10000 nM | 47% | 
4 | CN1CCN(c2cncc3[nH]c(-c4n[nH]c5ccc(-c6cncc(N)c6)nc45)nc23)CC1 [Compound 227, 5-(3-(7-(4-Methylpiperazin-1-yl)-3H-imidazo[4,5-c]pyridin-2-yl)-1H-pyrazolo[4,3-b]pyridin-5-yl)pyridin-3-amine] | 16.3% | > 10000 nM | 65% | 30 nM
5 | CC(C)C(=O)Nc1cncc(-c2ccc3[nH]nc(-c4nc5c(N6CCN(C)CC6)cncc5[nH]4)c3n2)c1 [Compound 233, N-(5-(3-(7-(4-Methylpiperazin-1-yl)-3H-imidazo[4,5-c]pyridin-2-yl)-1H-pyrazolo[4,3-b]pyridin-5-yl)pyridin-3-yl)isobutyramide] | 6.2% | > 10000 nM | 47% | 
6 | CCNCc1cncc(-c2ccc3[nH]nc(-c4nc5c(-c6ccoc6)cncc5[nH]4)c3n2)c1 [Compound 286, N-((5-(3-(7-(Furan-3-yl)-3H-imidazo[4,5-c]pyridin-2-yl)-1H-pyrazolo[4,3-b]pyridin-5-yl)pyridin-3-yl)methyl)ethanamine] | 37.4% | > 10000 nM | 29% | 
7 | CCCCC(=O)Nc1cncc(-c2ccc3[nH]nc(-c4nc5c(-c6ccoc6)cncc5[nH]4)c3n2)c1 [Compound 299, N-(5-(3-(7-(Furan-3-yl)-3H-imidazo[4,5-c]pyridin-2-yl)-1H-pyrazolo[4,3-b]pyridin-5-yl)pyridin-3-yl)pentanamide] | 14.7% | > 10000 nM | 74% | 10 nM
8 | CCC(=O)Nc1cncc(-c2ccc3[nH]nc(-c4nc5c(-c6cccs6)cncc5[nH]4)c3n2)c1 [Compound 309, N-(5-(3-(7-(Thiophen-2-yl)-3H-imidazo[4,5-c]pyridin-2-yl)-1H-pyrazolo[4,3-b]pyridin-5-yl)pyridin-3-yl)propionamide] | 2.4% | > 10000 nM | 80% | 30 nM
9 | CN(C)Cc1cncc(-c2ccc3[nH]nc(-c4nc5c(-c6cccs6)cncc5[nH]4)c3n2)c1 [Compound 321, N,N-dimethyl-1-(5-(3-(7-(thiophen-2-yl)-3H-imidazo[4,5-c]pyridin-2-yl)-1H-pyrazolo[4,3-b]pyridin-5-yl)pyridin-3-yl)methanamine] | 19.2% | > 10000 nM | 79% | 10 nM
10 | Cc1ccc(-c2cncc3[nH]c(-c4n[nH]c5ccc(-c6cncc(NC(=O)C(C)C)c6)nc45)nc23)s1 [Compound 373, N-(5-(3-(7-(5-Methylthiophen-2-yl)-3H-imidazo[4,5-c]pyridin-2-yl)-1H-pyrazolo[4,3-b]pyridin-5-yl)pyridin-3-yl)isobutyramide] | 16.1% | > 10000 nM | 42% | 
11 | CCNCc1cncc(-c2ccc3[nH]nc(-c4nc5c(-c6cc(F)cc(NCCN(C)C)c6)cncc5[nH]4)c3n2)c1 [Compound 426, N^1-(3-(2-(5-(5-((Ethylamino)methyl)pyridin-3-yl)-1H-pyrazolo[4,3-b]pyridin-3-yl)-3H-imidazo[4,5-c]pyridin-7-yl)-5-fluorophenyl)-N^2,N^2-dimethylethane-1,2-diamine] | 8.8% | > 10000 nM | 66% | 1670 nM
12 | CCCCC(=O)Nc1cncc(-c2ccc3[nH]nc(-c4nc5c(-c6cc(F)cc(NCCN(C)C)c6)cncc5[nH]4)c3n2)c1 [Compound 439, N-(5-(3-(7-(3-((2-(Dimethylamino)ethyl)amino)-5-fluorophenyl)-3H-imidazo[4,5-c]pyridin-2-yl)-1H-pyrazolo[4,3-b]pyridin-5-yl)pyridin-3-yl)pentanamide] | 3.1% | > 10000 nM | 65% | 10 nM
13 | CCCC(=O)Nc1cncc(-c2ccc3[nH]nc(-c4nc5c(-c6cc(F)cc(CNS(C)(=O)=O)c6)cncc5[nH]4)c3n2)c1 [Compound 465, N-(5-(3-(7-(3-Fluoro-5-(methylsulfonamidomethyl)phenyl)-3H-imidazo[4,5-c]pyridin-2-yl)-1H-pyrazolo[4,3-b]pyridin-5-yl)pyridin-3-yl)butyramide] | 28% | > 10000 nM | 39% | 
14 | Fc1cccc(-c2cncc3[nH]c(-c4n[nH]c5ccc(C6CCNCC6)nc45)nc23)c1 [Compound 477, 3-(7-(3-Fluorophenyl)-3H-imidazo[4,5-c]pyridin-2-yl)-5-(piperidin-4-yl)-1H-pyrazolo[4,3-b]pyridine] | 20% | > 10000 nM | 43% | 
15 | Fc1cccc(-c2cncc3[nH]c(-c4n[nH]c5ccc(C6=CCNCC6)nc45)nc23)c1 [Compound 478, 3-(7-(3-Fluorophenyl)-3H-imidazo[4,5-c]pyridin-2-yl)-5-(1,2,3,6-tetrahydropyridin-4-yl)-1H-pyrazolo[4,3-b]pyridine] | 11% | > 10000 nM | 53% | 7 nM
16 | Fc1cccc(-c2cncc3[nH]c(-c4n[nH]c5ccc(-c6cn[nH]c6)nc45)nc23)c1 [Compound 479, 3-(7-(3-Fluorophenyl)-3H-imidazo[4,5-c]pyridin-2-yl)-5-(1H-pyrazol-4-yl)-1H-pyrazolo[4,3-b]pyridine] | 9% | > 10000 nM | 52% | 21 nM
17 | Cn1cc(-c2ccc3[nH]nc(-c4nc5c(-c6cccc(F)c6)cncc5[nH]4)c3n2)cn1 [Compound 480, 3-(7-(3-Fluorophenyl)-3H-imidazo[4,5-c]pyridin-2-yl)-5-(1-methyl-1H-pyrazol-4-yl)-1H-pyrazolo[4,3-b]pyridine] | 13% | > 10000 nM | 49% | 
18 | Cc1ncc(-c2ccc3[nH]nc(-c4nc5c(-c6cccc(F)c6)cncc5[nH]4)c3n2)n1C [Compound 481, 5-(1,2-Dimethyl-1H-imidazol-5-yl)-3-(7-(3-fluorophenyl)-3H-imidazo[4,5-c]pyridin-2-yl)-1H-pyrazolo[4,3-b]pyridine] | 46% | > 10000 nM | 132% | 30 nM
